Laboratory results: patent US20120122924A1, “NAMPT INHIBITORS” (ABBOTT LABORATORIES, priority 2010, published 2012)

Each molecule was assayed against recombinant, human, C-terminally-His tagged NAMPT (Homo sapiens, UniProt P43490) (assay: Time-Resolved Fluorescence Resonance Energy Transfer (TR-FRET) binding assay of NAMPT). Settings: 6.8 nM NAMPT, 200 nM probe (Oregon Green 488-conjugated APO866), 1 nM Tb-anti-His antibody, 2-3 hours.
Chain of recombinant, human, C-terminally-His tagged NAMPT (P43490 whole entry): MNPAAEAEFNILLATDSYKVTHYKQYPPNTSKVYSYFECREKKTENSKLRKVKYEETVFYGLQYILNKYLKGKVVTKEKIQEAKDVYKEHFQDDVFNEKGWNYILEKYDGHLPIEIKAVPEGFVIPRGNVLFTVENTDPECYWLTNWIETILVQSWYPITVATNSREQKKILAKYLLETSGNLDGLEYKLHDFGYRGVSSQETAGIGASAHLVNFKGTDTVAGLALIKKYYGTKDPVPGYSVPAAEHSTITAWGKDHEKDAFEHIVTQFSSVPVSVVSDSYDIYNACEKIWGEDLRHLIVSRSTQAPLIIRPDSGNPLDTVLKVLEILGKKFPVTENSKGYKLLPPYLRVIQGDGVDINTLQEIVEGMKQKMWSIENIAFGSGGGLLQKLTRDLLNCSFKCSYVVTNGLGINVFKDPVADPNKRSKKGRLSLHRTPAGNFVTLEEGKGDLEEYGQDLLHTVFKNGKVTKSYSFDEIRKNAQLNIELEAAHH
Protocol: Determination of the utility of compounds having Formula (I) as binders to and inhibitors of NAMPT was performed using a Time-Resolved Fluorescence Resonance Energy Transfer (TR-FRET) binding assay.
Time-Resolved Fluorescence Resonance Energy Transfer (TR-FRET) Binding Assay of NAMPT
The assay was carried out in 18 uL low volume plates (Owens Corning) in reaction buffer (50 mM HEPES (NaOH), pH 7.5, 100 mM NaCl, 10 mM MgCl2, 1 mM DTT, 1% Glycerol) using 6.8 nM recombinant, human, C-terminally-His tagged NAMPT, 1 nM Tb-anti-His antibody (Invitrogen, Cat # PV5895), and 200 nM probe (Oregon Green 488-conjugated APO866; A-1251667.0). Plates were covered, and reactions were carried out for 2-3 hours. Plates were read with Envision (Laser Lantha low volume protocol) after 2 to 3 hours. Excitation was carried out at 337 nm, and the ratio of emission of Oregon Green (520 nm) to terbium (492 nm) was determined and used to calculate IC50 values of test compounds.
In the case of `O=C(CCN1CCOCC1)Nc1ccc(NC(=O)N2CCc3ccccc3C2)cc1` [Example 95, N-(4-{[3-(morpholin-4-yl)propanoyl]amino}phenyl)-3,4-dihydroisoquinoline-2(1H)-carboxamide], the IC50 is reported as 158 nM. Work on `CCCC(=O)N1CC=C(c2ccc(NC(=O)N3CCc4ccccc4C3)cc2)CC1` [Example 44, N-[4-(1-butyryl-1,2,3,6-tetrahydropyridin-4-yl)phenyl]-3,4-dihydroisoquinoline-2(1H)-carboxamide] yielded an IC50 of 13.6 nM. Work on `Cn1cc(-c2ccc(NC(=O)N3CCc4ccccc4C3)cc2)cn1` [Example 42, N-[4-(1-methyl-1H-pyrazol-4-yl)phenyl]-3,4-dihydroisoquinoline-2(1H)-carboxamide] yielded an IC50 of 1290 nM. In the case of `O=C(NCCCc1ccccc1)c1ccc(NC(=O)N2CCc3ccncc3C2)cc1` [Example 25, N-{4-[(3-phenylpropyl)carbamoyl]phenyl}-3,4-dihydro-2,7-naphthyridine-2(1H)-carboxamide], the IC50 is reported as 597 nM. Work on `CC(C)CCNC(=O)c1ccc(NC(=O)N2CCc3ccncc3C2)cc1` [Example 28, N-{4-[(3-methylbutyl)carbamoyl]phenyl}-3,4-dihydro-2,7-naphthyridine-2(1H)-carboxamide] yielded an IC50 of 1250 nM. With `CS(=O)(=O)N1CC=C(c2ccc(NC(=O)N3CCc4ccccc4C3)cc2)CC1` [Example 53, N-{4-[1-(methylsulfonyl)-1,2,3,6-tetrahydropyridin-4-yl]phenyl}-3,4-dihydroisoquinoline-2(1H)-carboxamide] the IC50 was 112 nM. `O=C(Nc1ccc(C(F)(F)F)cc1)N1CCc2ccccc2C1` [Example 97, N-[4-(trifluoromethyl)phenyl]-3,4-dihydroisoquinoline-2(1H)-carboxamide] showed an IC50 of 1490 nM. In the case of `O=C(NCCCc1ccccc1)c1ccc(NC(=O)N2CCc3ccc(F)cc3C2)cc1` [Example 20, 7-fluoro-N-{4-[(3-phenylpropyl)carbamoyl]phenyl}-3,4-dihydroisoquinoline-2(1H)-carboxamide], the IC50 is reported as 248 nM. `CC(C)CCn1cc(NC(=O)c2ccc(NC(=O)N3CCc4ccccc4C3)cc2)cn1` [Example 11, N-(4-{[1-(3-methylbutyl)-1H-pyrazol-4-yl]carbamoyl}phenyl)-3,4-dihydroisoquinoline-2(1H)-carboxamide] gave an IC50 of 43.3 nM. `O=C(Nc1ccc(NC(=O)N2CCc3ccccc3C2)cc1)c1ccc[nH]1` [Example 86, N-{4-[(1H-pyrrol-2-ylcarbonyl)amino]phenyl}-3,4-dihydroisoquinoline-2(1H)-carboxamide] was tested, and the IC50 was 377 nM. `Nc1ccc(CCC(=O)Nc2ccc(NC(=O)N3CCc4ccccc4C3)cc2)cc1` [Example 82, N-(4-{[3-(4-aminophenyl)propanoyl]amino}phenyl)-3,4-dihydroisoquinoline-2(1H)-carboxamide] was tested, and the IC50 was 49 nM. `O=C(Nc1ccc(NC(=O)N2CCc3ccccc3C2)cc1)C1CCOC1` (racemic) [Example 75, N-{4-[((3R)-tetrahydrofuran-3-ylcarbonyl)amino]phenyl}-3,4-dihydroisoquinoline-2(1H)-carboxamide and N-{4-[((3S)-tetrahydrofuran-3-ylcarbonyl)amino]phenyl}-3,4-dihydroisoquinoline-2(1H)-carboxamide] gave an IC50 of 196 nM. `CC(C)CCNC(=O)c1ccc(NC(=O)N2CCc3ccccc3C2)nc1` [Example 10, N-{5-[(3-methylbutyl)carbamoyl]pyridin-2-yl}-3,4-dihydroisoquinoline-2(1H)-carboxamide] was tested, and the IC50 was 29.4 nM. `CC(=O)N1CCC(C(=O)Nc2ccc(NC(=O)N3CCc4ccccc4C3)cc2)CC1` [Example 65, N-(4-{[(1-acetylpiperidin-4-yl)carbonyl]amino}phenyl)-3,4-dihydroisoquinoline-2(1H)-carboxamide] showed an IC50 of 116 nM. `CC(C)(C)OC(=O)N1CC=C(c2ccc(NC(=O)N3CCc4ccccc4C3)cc2)CC1` [Example 49, tert-butyl 4-{4-[(3,4-dihydroisoquinolin-2(1H)-ylcarbonyl)amino]phenyl}-3,6-dihydropyridine-1(2H)-carboxylate] was tested, and the IC50 was 48.7 nM.
